Results reported in patent US20070098787A1, “Composition for preventing and treating varicose veins of lower extremities” (MOCHIDA PHARMACEUTICAL CO., LTD., priority 2003, published 2007).

Test system: varicose veins of lower extremities
Assay: Case report: patient with varicose veins of lower extremities, Dorner replaced with EPADEL S
Format: in vivo, human
Details: person
Description: A person diagnosed with hypertension, diabetes, hyperlipidemia, and varicose veins of lower extremities (serious conditions with multiple dilatations, winding varices, and skin pigmentation in both legs) was administered with Dorner (trade name; manufactured by Toray Industries, Inc.; generic name, beraprost sodium; a therapeutic agent for chronic artery occlusion) in expectation of therapeutic effect on varicose veins of lower extremities together with Adalat L (trade name; manufactured by Bayer; generic name, nifedipine; coronary vasodilator), Basen (trade name; manufactured by Takeda Pharmaceutical Company Limited; generic name, voglibose; α-glucosidase inhibitor), Lochol (trade name; manufactured by Ciba Geigy Japan Ltd.; generic name, fluvastatin sodium; HMG-CoA reductase inhibitor), and NU-LOTAN (trade name; manufactured by Banyu Pharmaceutical Co., Ltd.; generic name, losartan potassium; angiotensin II receptor antagonist). […] Accordingly, Dorner was replaced with EPADEL S (trade name; manufactured by Mochida Pharmaceutical Co., Ltd.; generic name, ethyl eicosapentate (EPA-E)) at a dose of 600 mg×3 packets per day. […] The skin pigmentation also disappeared. […] No therapeutic method was changed except the change of the drug from Dorner to EPADEL S.

[1] = 600 mg×3 packets per day, after about 1 month, Dorner replaced, other medication unchanged

Row | SMILES | improvement in the varicose veins of lower extremities (serious conditions in both legs, Dorner given together with Adalat L, Basen, Lochol and NU-LOTAN, after the medication) | adverse event presumably caused by the drug (600 mg×3 packets per day, about 1 month) | skin pigmentation (600 mg×3 packets per day, after about 1 month) | varicose veins in the left leg [1] | varicose veins in the right leg [1]
1 | CC#CCC(C)[C@H](O)/C=C/[C@@H]1[C@H]2c3cccc(CCCC(=O)O)c3O[C@H]2C[C@H]1O (mixture of isomers) [Dorner, beraprost sodium] | No improvement | – | – | – | –
2 | CC/C=C\C/C=C\C/C=C\C/C=C\C/C=C\CCCC(=O)OCC [EPADEL S, ethyl eicosapentate] | – | No adverse event | disappeared | substantial improvement | substantial disappearance
